This is an account of results in patent US20230012368A1 (Hoffmann-La Roche Inc., priority 2018, published 2023).

Counter-ions that a name gives are not always drawn.

One test relates to Acinetobacter baumannii ATCC 17978. Briefly: Antimicrobial susceptibility testing: 90% growth inhibitory concentration (IC90) determination. The class given is cell-based. Particulars: 90% growth inhibitory concentration; Acinetobacter baumannii ATCC17978; Iso-Sensitest broth, OD 600 nm over 16h; read-out: ATCC17978 IC90. The method, then: Antimicrobial Susceptibility Testing:
90% Growth Inhibitory Concentration (IC90) Determination
The in vitro antimicrobial activity of the compounds was determined according to the following procedure:
The assay used a 10-points Iso-Sensitest broth medium to measure quantitatively the in vitro activity of the compounds against Acinetobacter baumannii ATCC 17978 and Acinetobacter baumannii ATCC 17961.
Stock compounds in DMSO were serially twofold diluted (e.g. range from 50 to 0.097 μM final concentration) in 384 wells microtiter plates and inoculated with 49 μl the bacterial suspension in Iso-Sensitest medium to have a final cell concentration of ˜5×10^(5) CFU/ml in a final volume/well of 50 ul/well. Microtiter plates were incubated at 35±2° C.
Bacterial cell growth was determined with the measurement of optical density at λ=600 nm each 20 minutes over a time course of 16h. Growth inhibition was calculated during the logarithmic growth of the bacterial cells with determination of the concentration inhibiting 50% (IC50) and 90% (IC90) of the growth.
Table 1 provides the 90% growth inhibitory concentrations (IC90) in micromoles per liter of the compounds of present invention obtained against the strain Acinetobacter baumannii ATCC17978 and Acinetobacter baumannii ATCC17961.
Turning to `COc1ccc(-c2cnc3c(Nc4ccc(C(=O)N(C)CC5CNC5)c(C)c4)nccn23)cc1F` [Example 384, N-(azetidin-3-ylmethyl)-4-[[3-(3-fluoro-4-methoxyphenyl)imidazo[1,2-a]pyrazin-8-yl]amino]-N,2-dimethylbenzamide], the IC90 (commonly the concentration at which the effect reaches the 90% level) came out at 880 nM.

For the molecule `CCc1cc(Nc2nccn3c(-c4ccc(OC)c(F)c4F)cnc23)ccc1C(=O)NCCCCC(=O)NC[C@H]1O[C@H](O[C@@H]2[C@@H](O)[C@H](O[C@H]3O[C@H](CN)[C@@H](O)[C@H](O)[C@H]3O)[C@@H](N)C[C@H]2NC(=O)[C@@H](O)CCN)[C@H](O)[C@@H](N)[C@@H]1O` [Example 454, trifluoroacetate], the IC90 was determined as 970 nM. For `COc1ccc(-c2cnc3c(Nc4ccc(C(=O)NCCC5CCOCC5)c(C)c4)nccn23)cc1F` [Example 37, 4-[[3-(3-fluoro-4-methoxy-phenyl)imidazo[1,2-a]pyrazin-8-yl]amino]-2-methyl-N-(2-tetrahydropyran-4-ylethyl)benzamide; 2,2,2-trifluoroacetic acid], the IC90 came out at 240 nM. As for `COc1ccc(-c2cnc3c(Nc4ccc(C(=O)N(C)CCN5CCNCC5)c(Cl)c4)nccn23)c(F)c1F` [Example 44, 2-chloro-4-[[3-(2,3-difluoro-4-methoxy-phenyl)imidazo[1,2-a]pyrazin-8-yl]amino]-N-methyl-N-(2-piperazin-1-ylethyl)benzamide; 2,2,2-trifluoroacetic acid], the IC90 was 120 nM.

The same test, now with this note: Acinetobacter baumannii, ATCC17978, 16 h, 90% growth inhibitory concentration; Acinetobacter baumannii ATCC17978; Iso-Sensitest broth, OD 600 nm over 16h; read-out: ATCC17978 IC90.
`CCc1cc(Nc2nccn3c(-c4ccc(OC)c(F)c4F)cnc23)ccc1C(=O)NCC(O)CNC(=O)[C@@H](N)CCN` (mixture of isomers) [Example 414, rac-N-(3-((R)-2,4-diaminobutanamido)-2-hydroxypropyl)-4-((3-(2,3-difluoro-4-methoxyphenyl)imidazo[1,2-a]pyrazin-8-yl)amino)-2-ethylbenzamide dihydrochloride]: the IC90 came to 390 nM.

For the molecule `COc1ccc(-c2cnc3c(Nc4ccc(C(=O)NCC5CCOC5)c(C)c4)nccn23)cc1F` (stereo not shown) [Example 70, 4-((3-(3-fluoro-4-methoxyphenyl)imidazo [1,2-a]pyrazin-8-yl)amino)-2-methyl-N-((tetrahydrofuran-3-yl)methyl)benzamide], the IC90 amounted to 700 nM. In the case of `Cn1cc(CNC(=O)c2ccc(Nc3nccn4c(-c5ccc(OCC#N)c(F)c5F)cnc34)cc2Cl)ccc1=O` [Example 87, 2-chloro-4-[[3-[4-(cyanomethoxy)-2,3-difluoro-phenyl]imidazo[1,2-a]pyrazin-8-yl]amino]-N-[(1-methyl-6-oxo-3-pyridyl)methyl] benzamide], the IC90 worked out at 80 nM. Same read-out and setting: in the case of `CCc1cc(Nc2nccn3c(-c4ccc(OC)c(F)c4F)cnc23)ccc1C(=O)N[C@H](C)C(=O)NCCNC` [Example 566, 4-[[3-(2,3-difluoro-4-methoxy-phenyl)imidazo[1,2-a]pyrazin-8-yl]amino]-2-ethyl-N-[(1R)-1-methyl-2-[2-(methylamino)ethylamino]-2-oxo-ethyl]benzamide] it was 950 nM; in that of `Cc1cc(Nc2nccn3c(-c4ccc(OC(F)F)cc4)cnc23)ccc1C(=O)NCC1CNCCO1` (stereo not shown) [Example 242, 4-[[3-[4-(difluoromethoxy)phenyl]im-idazo[1,2-a]pyrazin-8-yl]amino]-2-methyl-N-(morpholin-2-ylmethyl)benzamide; hydrochlo-ride], 2000 nM; in that of `COc1ccc(-c2cnc3c(Nc4ccc(C(=N)NCC(N)=O)c(C)c4)nccn23)cc1` [Example 17], 550 nM.

On to `CCc1cc(Nc2nccn3c(-c4ccc(OC)c(F)c4F)cnc23)ccc1C(=O)NCCNC(=O)NCCN` [Example 339, N-[2-(2-aminoethylcarbamoylamino)ethyl]-4-[[3-(2,3-difluoro-4-methoxyphenyl)imidazo[1,2-a]pyrazin-8-yl]amino]-2-ethylbenzamide], for which the IC90 was 560 nM. On the same count and under the same terms, to `CCc1cc(Nc2nccn3c(-c4ccc(OC)cc4C(F)(F)F)cnc23)ccc1C(=O)NC` [Example 537, 2-ethyl-4-[[3-[4-methoxy-2-(trifluoromethyl)phenyl]imid-azo[1,2-a]pyrazin-8-yl]amino]-N-methyl-benzamide] belongs 207 nM. With `CCc1cc(Nc2nccn3c(-c4ccc(Cl)c(F)c4F)cnc23)ccc1C(=O)NCCNC(=O)[C@H](N)CCCNC(=N)N` [Example 130, N-[2-[[(2R)-2-amino-5-guanidino-pentanoyl]amino]ethyl]-4-[[3-(4-chloro-2,3-difluoro-phenyl)imidazo[1,2-a]pyrazin-8-yl]amino]-2-ethyl-benzamide formate], the IC90 was found to be 640 nM.

`C/C=C/c1cc(Nc2nccn3c(-c4ccc(OC(F)F)cc4)cnc23)ccc1C(=O)NC` [Example 151, (E)-4-((3-(4-(Difluoromethoxy)phenyl)imidazo[1,2-a]pyrazin-8-yl)amino)-N-methyl-2-(prop-1-en-1-yl)benzamide]: the IC90 worked out at 2000 nM. `COc1ccc(-c2cnc3c(Nc4ccc(C(=O)NC(CO)CO)c(C)c4)nccn23)cc1` [Example 154]: the IC90 came to 820 nM. Turning to `CCc1cc(Nc2nccn3c(-c4ccc(OC)c(F)c4F)cnc23)ccc1C(=O)N[C@@H](C)CNC(=O)[C@@H](N)CCCCN` [Example 453, N-[(1S)-2-[[(2S)-2,6-diaminohexanoyl]amino]-1-methyl-ethyl]-4-[[3-(2,3-difluoro-4-methoxy-phenyl)imidazo[1,2-a]pyrazin-8-yl]amino]-2-ethyl-benzamide], the IC90 was 320 nM. Regarding `CNC(=O)c1ccc(Nc2nccn3c(-c4ccc(OC(F)F)cc4)cnc23)cc1COCCO` [Example 168, 4-[[3-[4-(difluoromethoxy)phenyl]imidazo[1,2-a]pyrazin-8-yl]amino]-2-(2-hydroxyethoxymethyl)-N-methyl-benzamide], the 90% effect concentration (IC90) is 2000 nM. As for `CCc1cc(Nc2nccn3c(-c4ccc(OC)c(F)c4F)cnc23)ccc1C(=O)NCC(=O)NCCN(C)C` [Example 434, 4-[[3-(2,3-difluoro-4-methoxy-phenyl)imidazo[1,2-a]pyrazin-8-yl]amino]-N-[2-[2-(dimethylamino)ethylamino]-2-oxo-ethyl]-2-ethyl-benzamide; formic acid], the IC90 turned out to be 250 nM. Take `COc1ccc(-c2cnc3c(Nc4ccc(C(=O)N(C)CCN)c(C)c4)nccn23)cc1` [Example 32, N-(2-aminoethyl)-4-((3-(4-methoxyphenyl)imidazo [1,2-a]pyrazin-8-yl)amino)-N,2-dimethylbenzamide]: the IC90 is 1700 nM. As to `CCc1cc(Nc2nccn3c(-c4ccc(OC)c(F)c4F)cnc23)ccc1C(=O)NCCNC(=O)[C@H](N)CCCNC(=N)N` [Example 125, N-[2-[[(2R)-2-amino-5-guanidino-pentanoyl]amino]ethyl]-4-[[3-(2,3-difluoro-4-methoxy-phenyl)imidazo[1,2-a]pyrazin-8-yl]amino]-2-ethyl-benzamide formate], the IC90 was 120 nM. For `CCc1cc(Nc2nccn3c(-c4ccc(OC)c(F)c4F)cnc23)ccc1C(=O)NCC(O)CNC(=O)CC(O)CN` (stereo not shown) [Example 411, N-(3-(4-amino-3-hydroxybutanamido)-2-hydroxypropyl)-4-((3-(2,3-difluoro-4-methoxyphenyl)imidazo[1,2-a]pyrazin-8-yl)amino)-2-ethylbenzamide hydrochloride], the IC90 was determined as 320 nM. The same measure, in the same setting: in the case of `Cc1cc(Nc2nccn3c(-c4ccc(OCC#N)c(F)c4F)cnc23)ccc1C(=O)NCCNC(=O)[C@@H]1C[C@@H](O)CN1` [Example 365, (2S,4R)-N-[2-[[4-[[3-[4-(cyanomethoxy)-2,3-difluorophenyl]imidazo[1,2-a]pyrazin-8-yl]amino]-2-methylbenzoyl]amino]ethyl]-4-hydroxypyrrolidine-2-carboxamide] it was 90 nM; in that of `CCc1cc(Nc2nccn3c(-c4ccc(Oc5ncccn5)c(F)c4F)cnc23)ccc1C(=O)NCCCNC(=O)C1CCNCC1` [Example 544, N-(3-(4-((3-(2,3-difluoro-4-(pyrimidin-2-yloxy)phenyl)imidazo[1,2-a]pyrazin-8-yl)amino)-2-ethylbenzamido)propyl)piper-idine-4-carboxamide formate], 290 nM; in that of `CCc1cc(Nc2nccn3c(-c4ccc(OC)c(F)c4F)cnc23)ccc1C(=O)NCCNC(=O)C(CNC(=N)N)NC(=O)[C@@H](N)CCC(=O)O` (mixture of isomers) [Example 461, (4S)-4-amino-5-((1-((2-(4-((3-(2,3-difluoro-4-methoxyphenyl)imidazo[1,2-a]pyrazin-8-yl)amino)-2-ethylbenzamido)ethyl)amino)-3-guanidino-1-oxopropan-2-yl)amino)-5-oxopentanoic acid trihydrochloride], 480 nM.

Take `CCc1cc(Nc2nccn3c(-c4ccc(OC)c(F)c4F)cnc23)ccc1C(=O)NCCCO[C@@H]1O[C@H](CO)[C@H](O)[C@H](O)[C@H]1N` [Example 520, N-[3-[(2R,3R,4R,5R,6R)-3-amino-4,5-dihydroxy-6-(hydroxymethyl)oxan-2-yl]oxypropyl]-4-[[3-(2,3-difluoro-4-methoxyphenyl)imidazo[1,2-a]pyrazin-8-yl]amino]-2-ethylbenzamide;formic acid]: the IC90 was found to be 110 nM.
